Assay results published in patent US6150414A, “Compositions and methods for treating viral infections” (priority 1992, dated 2000).

Columns and labels:
[1] = test system: retroviruses (virions); assay: Direct inactivation of retroviruses (virions) in vitro (Example 10); type: biochemical, Radiation Leukemia Virus; conditions: Table IX
Outline: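 RadLV-containing supernatants from chronically infected B10.T(6R) cells incubated 30 min on ice with hypericin or protohypericin. Virions then pelleted at 100,000×g for 1 h at 4° C and assayed for reverse transcriptase activity. EC50 is the micromolar concentration inhibiting 50% of virus.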

[2] = test system: virus budding in virus-producing cells; assay: In vitro inhibition of virus budding: production of defective budded virions (Example 10); type: cell-based; conditions: in vitro; Table IX; read-out: EC50 for production of defective budded virions
Excerpt: (§1) The results presented above in Table IX are presented as EC50 concentrations. These are the effective concentrations which inhibit 50% of the viruses in micromolar concentrations.

[3] = test system: Friend Leukemia Virus; assay: In vivo inhibition of Friend Leukemia Virus splenomegaly, intravenous 1-2 hours post infection (Example 10); set-up: species or system mice; conditions: Mus musculus, read-out: EC50 for FV-induced splenomegaly
Procedure: (3) In vivo inhibition of Friend Leukemia Virus Splenomegaly performed as described in Example 1 above except that the compounds were administered intravenously 1-2 hours post infection.
as §1

[4] = Antiviral activity of hypericin as a function of frequency of treatment in mouse studies; type: in vivo
Excerpt: The present inventors have also discovered that the antiviral activity of hypericin is a function of the frequency of treatment. […] While the foregoing observations in mice may not be applicable to other mammals or humans, those skilled in the art will appreciate that the frequency of treatment is subject to optimization, which can be determined by routine experimentation according to methods well known in the art, e.g. by establishing a matrix of dosage and frequency and assigning a group of experimental subjects to each point of the matrix. Design of this experiment should preferably also take into account the tissue accumulation properties of PAC compounds.

Cc1cc(O)c2c(=O)c3c(O)cc(O)c4c5c(O)cc(O)c6c(=O)c7c(O)cc(C)c8c1c2c(c34)c(c78)c65 [hypericin, Hypericin]
EC50 [1]: 60 nM | EC50 [2]: 200 nM | EC50 [3]: 120 nM | antiviral activity vs frequency of treatment ([4]; 10 micrograms every day for ten days): less effective than even a single 10-microgram dose | antiviral activity vs frequency of treatment ([4]; 10 micrograms once a week): as effective as the single 10-microgram dose | antiviral activity vs dose ([4]; single dose of ten micrograms per mouse): less effective than a single dose of 100 micrograms per mouse
